Source: patent publication US11459337B2, “Isothiazolo[5,4-D]pyrimidine compound as IRAK4 inhibitor” (priority 2018, dated 2022)
Where two headings read alike, the source gives them in different places.

Experiments:
human IRAK4 = human IRAK4 (Homo sapiens (Human), UniProt Q9NWZ3); assay: 33P-labeled kinase activity assay (Reaction Biology Corp), in vitro enzymatic activity; format: biochemical; conditions: 20 μM ATP, 3 nM kinase, MBP substrate
Method: The inhibitory activity of the test compounds against human IRAK4 was evaluated by measuring IC50 values in a ^33P-labeled kinase activity assay (Reaction Biology Corp). Buffer conditions: 20 mM Hepes (pH 7.5), 10 mM MgCl2, 1 mM EGTA, 0.02% Brij35, 0.02 mg/mL BSA, 0.1 mM Na3VO4, 2 mM DTT, 1% DMSO. Procedures: The test compound was dissolved in DMSO at room temperature to prepare a 10 mM solution for later use. The substrate was dissolved in fresh buffer, to which the kinase was added and mixed well. The DMSO solution containing the test compound was added to the above mixed reaction system by an acoustic technique (Echo 550). The concentrations of the compounds in reaction system were 10 μM, 3.33 μM, 1.11 μM, 0.370 μM, 0.123 μM, 41.2 nM, 13.7 nM, 4.57 nM, 1.52 nM, and 0.508 nM. After 15 minutes of incubation, the reaction was started by adding ^33P-ATP (activity: 0.01 μCi/μL; the corresponding concentration is listed in Table 1). Supplier's catalog number, lot number and concentration information in the reaction system for IRAK4 and its substrate are listed in Table 1. After 120 minutes of reaction at room temperature, the resulting solution was loaded on P81 ion exchange chromatography paper sheet (Whatman #3698-915). After repeated washing with 0.75% phosphoric acid solution, the radioactivity of the phosphorylated substrate residue on the paper sheet was measured. The kinase activity data are shown as a comparison of the kinase activity of the test compound and the kinase activity of the blank (DMSO only) and a curve was fitted using Prism4 software (GraphPad) to give IC50 values, with the experimental results shown in Table 2. [table]

THP-1 cells = assay: TNF-α ELISA assay in LPS-stimulated THP-1 cells; format: cell-based, human; conditions: TNF-α in supernatant, 150 ng/mL LPS
Method: TNF-α ELISA Assay in THP-1 Cells THP-1 human acute unicellular leukemia cells were purchased from ATCC (Cat #TIB-202) and incubated in a 37° C., 5% CO2 incubator. The medium was RPMI1640 (Gibco, Cat #22400-105), the supplementary was 10% FBS (Gibco, Cat #10091148); 1% PenStrep (Gibco, Cat #15140); 0.05 mM 2-mercaptoethanol (Sigma, Cat #M6250). TNF-α content in the culture supernatant was measured by a TNF-α Elisa kit. TNF-α was produced by stimulation of THP-1 cells with 150 ng/mL LPS (Sigma, Cat #L6529). Normal THP-1 cells in logarithmic phase were inoculated in 96-well plates (Corning #3599) at a certain concentration (1×10^5/100 μL) and then incubated in an incubator. After two hours, 16.7 μL of test compound of different concentrations (8×final concentration) was added and the mixture was incubated. After one hour, 16.7 μL of 1200 ng/mL LPS was added and the mixture was incubated. After 18 hours, the culture was centrifuged and the supernatant was collected. The TNF-α content was measured by a TNF-α Elisa kit. Finally, the OD signals (OD450-OD570) were read on an envision plate reader. The OD450-OD570 signals were converted to percent inhibition. Inhibition %=(ZPE−sample)/(ZPE−HPE)×100. “HPE” represents the OD450-OD570 signal value of the control without LPS-stimulated cells, and “ZPE” represents the OD450-OD570 signal value of the control with LPS-stimulated cells. IC50 values for compounds were calculated by XLFit in the Excel. Y=Bottom+(Top−Bottom)/(1+(IC50/X)^HillSlope). Equation: […]

[1] = Pharmacokinetic study of oral and intravenous test compounds in SD rats; format: in vivo; conditions: rat, plasma, SD male rats; for AUC(0-t): read-out: Area under plasma concentration-time curve AUC0-last
Method: Pharmacokinetic Study of Oral and Intravenous Test Compounds in SD Rats The test compound was mixed with a solution containing 10% of methyl pyrrolidone, 10% of polyethylene glycol stearate and 80% of water. The mixture was vortexed and sonicated to prepare a 1.5 mg/mL clarified solution, which was then filtered through a microporous membrane for later use. SD male rats aged 7 to 10 weeks were selected and administered intravenously with a dose of the candidate compound at 3 mg/kg. The test compound was mixed with 0.5% aqueous methylcellulose solution. The mixture was vortexed and sonicated to prepare a 2 mg/mL suspension for later use. SD male rats aged 7 to 10 weeks were selected and orally administered with a dose of the candidate compound at 10 mg/kg. Whole blood was collected at certain time points, and plasma was separated. The drug concentration was measured by LC-MS/MS, and pharmacokinetic parameters were calculated using Phoenix WinNonlin software (Pharsight, USA).

Chain of human IRAK4 (Q9NWZ3 whole entry): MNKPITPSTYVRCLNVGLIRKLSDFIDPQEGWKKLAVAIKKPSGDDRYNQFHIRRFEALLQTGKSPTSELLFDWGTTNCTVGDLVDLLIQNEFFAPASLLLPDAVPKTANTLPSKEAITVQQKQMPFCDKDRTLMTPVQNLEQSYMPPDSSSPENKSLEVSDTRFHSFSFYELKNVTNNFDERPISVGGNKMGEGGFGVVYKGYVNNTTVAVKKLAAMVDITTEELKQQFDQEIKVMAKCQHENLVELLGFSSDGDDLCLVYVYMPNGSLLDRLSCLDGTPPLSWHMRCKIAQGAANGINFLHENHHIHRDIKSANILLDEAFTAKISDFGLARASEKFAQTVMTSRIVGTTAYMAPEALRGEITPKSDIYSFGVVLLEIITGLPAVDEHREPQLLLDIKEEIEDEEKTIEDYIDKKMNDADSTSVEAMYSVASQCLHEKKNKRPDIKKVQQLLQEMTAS

Compound	IC50 (human IRAK4)	IC50 (THP-1 cells; Homo sapiens, THP-1, 18 h)	also measured
Cc1nsc2nc(Nc3cnn(C4CCOCC4)c3)nc(NC3CCC(N4CCCN(C)CC4)CC3)c12 (stereo not shown) [WX037]	9.2 nM	296 nM	–
COC(=O)N1CCN([C@H]2CC[C@H](Nc3nc(Nc4cnn(C5CCOC5)c4)nc4snc(C)c34)CC2)CC1 (stereo partly shown) [WX032]	15.2 nM	–	–
COC(=O)N1CCN([C@H]2CC[C@H](Nc3nc(Nc4cnn([C@@H]5CCOC5)c4)nc4snc(C)c34)CC2)CC1 [WX033]	12.8 nM	–	–
Cc1nsc2nc(Nc3cnn(C4CCOCC4)c3)nc(N[C@H]3CC[C@H](N4CC5CC(C4)N5)CC3)c12 [WX040]	30 nM	–	–
Cc1nsc2nc(Nc3cnn(C[C@@H]4COCCO4)c3)nc(N[C@H]3CC[C@H](N4CCOCC4)CC3)c12 [WX015]	20.5 nM	952 nM	–
Cc1nsc2nc(Nc3cnn(CC(=O)O)c3)nc(N[C@H]3CC[C@H](N4CCOCC4)CC3)c12 [WX011]	357 nM	–	–
Cc1nsc2nc(Nc3cnn(C4CCOCC4)c3)nc(NC3CCC(N4CCCNCC4)CC3)c12 (stereo not shown) [WX036]	5.5 nM	4160 nM	–
Cc1nsc2nc(Nc3cnn(C4CCOCC4)c3)nc(N[C@H]3CC[C@H](N4CC5CC(C4)N5C)CC3)c12 [WX041]	21.4 nM	–	–
Cc1nsc2nc(Nc3cnn(C4CCOCC4)c3)nc(N[C@H]3CC[C@H](N4CCN(C)CC4)CC3)c12 [WX030]	7.5 nM	308 nM	–
CC(=O)N1C2CC1CN([C@H]1CC[C@H](Nc3nc(Nc4cnn(C5CCOCC5)c4)nc4snc(C)c34)CC1)C2 [WX043]	12.2 nM	–	–
Cc1nsc2nc(Nc3cnn(C4CCOCC4)c3)nc(N(C)[C@H]3CC[C@H](N4CCOCC4)CC3)c12 [WX013]	60.1 nM	–	–
COC(=O)N1CCN([C@H]2CC[C@H](Nc3nc(Nc4cnn(C)c4)nc4snc(C)c34)CC2)CC1 [WX035]	10.7 nM	–	–
Cc1nsc2nc(Nc3cnn(C4CCOCC4)c3)nc(N[C@H]3CC[C@H](N4CCN(C(C)C)CC4)CC3)c12 [WX029]	3.8 nM	–	–
Cc1nsc2nc(Nc3cnn([C@H]4CCOC4)c3)nc(N[C@H]3CC[C@H](N4CCOCC4)CC3)c12 [WX006]	9.9 nM	486 nM	–
Cc1nsc2nc(Nc3cnn(CCO)c3)nc(N[C@H]3CC[C@H](N4CCOCC4)CC3)c12 [WX010]	45.9 nM	–	–
Cc1nsc2nc(Nc3cnn(C4CCOCC4)c3)nc(N[C@H]3CC[C@H](N4CCN(C5CC5)CC4)CC3)c12 [WX031]	2.4 nM	317 nM	–
CC(=O)N1CCN([C@H]2CC[C@H](Nc3nc(Nc4cnn(C5CCOCC5)c4)nc4snc(C)c34)CC2)CC1 [WX027]	3.3 nM	639 nM	–
Cc1nsc2nc(Nc3cnn(C4CCOC4)c3)nc(N[C@H]3CC[C@H](N4CCOCC4)CC3)c12 (stereo partly shown) [WX008]	27.2 nM	–	IC50 (THP-1 cells; 18 hours): 279 nM
CCOC(=O)N1CCN([C@H]2CC[C@H](Nc3nc(Nc4cnn(C5CCOCC5)c4)nc4snc(C)c34)CC2)CC1 [WX028]	1.6 nM	234 nM	–
NC(=O)C[C@H]1CCc2sc3ncnc(O[C@H]4CC[C@H](N5CCOCC5)CC4)c3c21 [WXR2, ND-2110, reference compound]	–	–	Vd ([1]; Intravenous, 3 mg/kg, read-out: Apparent volume of distribution Vdss): 1.6 L/kg; AUC(0-t) ([1]; Intravenous, 3 mg/kg): 3.68 µM·h; clearance ([1]; Intravenous, 3 mg/kg, read-out: Clearance CL): 33.2 mL/min/kg; half-life ([1]; Intravenous, 3 mg/kg, read-out: Half life T1/2 (converted)): 78 min; AUC(0-t) ([1]; Oral, 10 mg/kg): 2.13 µM·h; bioavailability ([1]; Oral, 10 mg/kg, read-out: Bioavailability F): 18%; Cmax ([1]; Oral, 10 mg/kg, read-out: Peak concentration Cmax): 893 nM; Tmax ([1]; Oral, 10 mg/kg, read-out: Time to peak Tmax): 36 min
Cc1nsc2nc(Nc3cnn(C[C@H]4COCCO4)c3)nc(N[C@H]3CC[C@H](N4CCOCC4)CC3)c12 [WX014]	30.3 nM	663 nM	–
Cc1nsc2nc(Nc3cnn(C4CCOCC4)c3)nc(N[C@H]3CC[C@H](N4CCNCC4)CC3)c12 [WX025]	23.6 nM	–	–
Cn1cc(Nc2nc(N[C@H]3CC[C@H](N4CCOCC4)CC3)c3c(C4CCOCC4)nsc3n2)cn1 [WX005]	8.7 nM	–	–
COC(=O)N1CCN([C@H]2CC[C@H](Nc3nc(Nc4cnn([C@H]5CCOC5)c4)nc4snc(C)c34)CC2)CC1 [WX034]	12.8 nM	–	–
Cc1nsc2nc(Nc3cnn(C4CCOCC4)c3)nc(O[C@H]3CC[C@H](N4CCOCC4)CC3)c12 [WX002]	89.5 nM	–	–

Second part, led by results:

IC50 (human IRAK4)	IC50 (THP-1 cells; Homo sapiens, THP-1, 18 h)	Compound	also measured
7.9 nM	139 nM	COC(=O)N1CCCN(C2CCC(Nc3nc(Nc4cnn(C5CCOCC5)c4)nc4snc(C)c34)CC2)CC1 (stereo not shown) [WX039]	–
13.7 nM	–	Cc1nsc2nc(Nc3cnn(C4CCOCC4)c3)nc(N[C@H]3CC[C@H](N4CCNCC4C)CC3)c12 (stereo partly shown) [WX051]	–
7.3 nM	–	Cc1nsc2nc(Nc3cnn(C4CCOCC4)c3)nc(N[C@H]3CC[C@H](N4CC(O)C4)CC3)c12 [WX060]	–
11.2 nM	516 nM	Cc1nsc2nc(Nc3cnn(C4CCOCC4)c3)nc(N[C@H]3CC[C@H](N4CCNC(C)C4)CC3)c12 (stereo partly shown) [WX049]	–
1.1 nM	–	COC(=O)N1CCN([C@H]2CC[C@H](Nc3nc(Nc4cnn(C5CCC(F)(F)CC5)c4)nc4snc(C)c34)CC2)CC1 [WX059]	–
1.3 nM	216 nM	CC(=O)N1CCCN(C2CCC(Nc3nc(Nc4cnn(C5CCOCC5)c4)nc4snc(C)c34)CC2)CC1 (stereo not shown) [WX038]	–
29.6 nM	889 nM	COC(=O)N1C[C@H]2C[C@@H]1CN2[C@H]1CC[C@H](Nc2nc(Nc3cnn(C4CCOCC4)c3)nc3snc(C)c23)CC1 [WX047]	–
11.7 nM	165 nM	N#CCc1nsc2nc(Nc3cnn(C4CCOCC4)c3)nc(N[C@H]3CC[C@H](N4CCOCC4)CC3)c12 [WX055]	–
2.1 nM	–	Cc1nsc2nc(Nc3cnn(C4CCOCC4)c3)nc(N[C@H]3CC[C@H](N4CCC(N(C)C)CC4)CC3)c12 [WX058]	–
13.4 nM	689 nM	Cc1nsc2nc(Nc3cnn(C4CCOCC4)c3)nc(N[C@H]3CC[C@H](N4CCNC5(CC5)C4)CC3)c12 [WX050]	–
278 nM	–	Cc1nsc2nc(Nc3cnn(C4CCOCC4)c3)nc(N[C@H]3CC[C@H](N4C[C@H]5C[C@@H]4CN5C)CC3)c12 [WX045]	–
460 nM	–	Cc1nsc2nc(Nc3cnn(C4CCOCC4)c3)nc(N[C@H]3CC[C@H](N4CCNC(=O)C4)CC3)c12 [WX048]	–
5 nM	–	Cc1nsc2nc(Nc3cnn(C4CCOCC4)c3)nc(N[C@H]3CC[C@H](N4CCC(C(=O)O)CC4)CC3)c12 [WX057]	–
1.8 nM	–	Cc1nsc2nc(Nc3cnn(C4CCOCC4)c3)nc(N[C@H]3CC[C@H](N4CCC(O)CC4)CC3)c12 [WX052]	–
363 nM	–	Cc1nsc2nc(Nc3cnn(C4CCOCC4)c3)nc(N[C@H]3CC[C@H](N4CCOCC4=O)CC3)c12 [WX054]	–
17 nM	–	O=C(O)Cc1nsc2nc(Nc3cnn(C4CCOCC4)c3)nc(N[C@H]3CC[C@H](N4CCOCC4)CC3)c12 [WX056]	–
